Test results as given in the supplement of paper PMC10307832.

Assays:
Assay in all cases: relative viability (nuclei count vs DMSO), 5 days (fraction); higher = more cells survive
NCI-H1623 = tested on: NCI-H1623
How it was run: (§1)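 Each reported value is a median over duplicate plates. It expresses relative viability: treated-well nuclei count divided by vehicle-well nuclei count. Lung cancer cell lines in 1536-well plates were dosed by pin tool a day after seeding, alone with one drug or with a fixed anchor-drug dose plus five library-drug doses (not always all listed) in √10 steps, and nuclei were counted after 5 days.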

NCI-H1993 = tested on: NCI-H1993
How it was run: as §1

NCI-H23 = tested on: NCI-H23
How it was run: as §1

NCI-H522 = tested on: NCI-H522
How it was run: as §1

NCI-H596 = tested on: NCI-H596
How it was run: as §1

NCI-H1648 = tested on: NCI-H1648
How it was run: as §1

NCI-H1703 = tested on: NCI-H1703
How it was run: as §1

In the case of `C=C1C(=O)O[C@@H](CCCCCCCC)[C@@H]1C(=O)O` [C-75] + CCNC(=O)c1noc(-c2cc(C(C)C)c(O)cc2O)c1-c1ccc(CN2CCOCC2)cc1 [Luminespib] (partner 0.01 µM), the relative viability (NCI-H1623; first compound 0.08 µM) is reported as 0.436, the relative viability (NCI-H1623; first compound 0.253 µM) is reported as 0.536 and the relative viability (NCI-H1623; first compound 0.8 µM) is reported as 0.585. It also gave a relative viability (NCI-H1623; first compound 2.53 µM) of 0.505, a relative viability (NCI-H1623; first compound 8 µM) of 0.475 and a relative viability (NCI-H1993; first compound 0.08 µM) of 0.988. It also gave a relative viability (NCI-H1993; first compound 0.253 µM) of 0.806, a relative viability (NCI-H1993; first compound 0.8 µM) of 0.787 and a relative viability (NCI-H1993; first compound 2.53 µM) of 0.875. For the same molecule, the relative viability (NCI-H1993; first compound 8 µM) was 0.83, the relative viability (NCI-H23; first compound 0.08 µM) was 0.246 and the relative viability (NCI-H23; first compound 0.253 µM) was 0.206. It also gave a relative viability (NCI-H23; first compound 0.8 µM) of 0.198, a relative viability (NCI-H23; first compound 2.53 µM) of 0.222 and a relative viability (NCI-H23; first compound 8 µM) of 0.209. The relative viability (NCI-H522; first compound 0.08 µM) was 1.06, the relative viability (NCI-H522; first compound 0.253 µM) was 1.04 and the relative viability (NCI-H522; first compound 0.8 µM) was 1.06. It also gave a relative viability (NCI-H522; first compound 2.53 µM) of 0.904, a relative viability (NCI-H522; first compound 8 µM) of 0.911 and a relative viability (NCI-H596; first compound 0.08 µM) of 0.854. It also gave a relative viability (NCI-H596; first compound 0.253 µM) of 0.968, a relative viability (NCI-H596; first compound 0.8 µM) of 0.937 and a relative viability (NCI-H596; first compound 2.53 µM) of 0.939. The relative viability (NCI-H596; first compound 8 µM) was 0.957.

Molecule `NC(=O)Nc1cc(-c2cccc(F)c2)sc1C(=O)N[C@H]1CCCNC1` [AZD7762] + CCNC(=O)c1noc(-c2cc(C(C)C)c(O)cc2O)c1-c1ccc(CN2CCOCC2)cc1 [Luminespib] (partner 0.01 µM) has a relative viability (NCI-H1623; first compound 0.01 µM) of 0.421, a relative viability (NCI-H1623; first compound 0.03162 µM) of 0.591 and a relative viability (NCI-H1623; first compound 0.1 µM) of 0.602. The relative viability (NCI-H1623; first compound 0.3162 µM) was 0.604, the relative viability (NCI-H1623; first compound 1 µM) was 0.418 and the relative viability (NCI-H1993; first compound 0.01 µM) was 1.04. For the same molecule, the relative viability (NCI-H1993; first compound 0.03162 µM) was 0.948, the relative viability (NCI-H1993; first compound 0.1 µM) was 0.81 and the relative viability (NCI-H1993; first compound 0.3162 µM) was 0.971. The relative viability (NCI-H1993; first compound 1 µM) was 0.678, the relative viability (NCI-H23; first compound 0.01 µM) was 0.226 and the relative viability (NCI-H23; first compound 0.03162 µM) was 0.189. The relative viability (NCI-H23; first compound 0.1 µM) was 0.194, the relative viability (NCI-H23; first compound 0.3162 µM) was 0.206 and the relative viability (NCI-H23; first compound 1 µM) was 0.194. The relative viability (NCI-H522; first compound 0.01 µM) was 1.14, the relative viability (NCI-H522; first compound 0.03162 µM) was 1.23 and the relative viability (NCI-H522; first compound 0.1 µM) was 1.14. The relative viability (NCI-H522; first compound 0.3162 µM) was 1.35, the relative viability (NCI-H522; first compound 1 µM) was 1 and the relative viability (NCI-H596; first compound 0.01 µM) was 0.985. The relative viability (NCI-H596; first compound 0.03162 µM) was 1.02, the relative viability (NCI-H596; first compound 0.1 µM) was 0.999 and the relative viability (NCI-H596; first compound 0.3162 µM) was 1.07. The relative viability (NCI-H596; first compound 1 µM) was 1.03.

`CC1(C)CCC(c2ccc(Cl)cc2)=C(CN2CCN(c3ccc(C(=O)NS(=O)(=O)c4ccc(N[C@H](CCN5CCOCC5)CSc5ccccc5)c(S(=O)(=O)C(F)(F)F)c4)cc3)CC2)C1` [Navitoclax] + NC(=O)Nc1cc(-c2cccc(F)c2)sc1C(=O)N[C@H]1CCCNC1 [AZD7762] (partner 0.2 µM) showed a relative viability (NCI-H1648; first compound 0.005 µM) of 0.799, a relative viability (NCI-H1648; first compound 0.01581 µM) of 0.669 and a relative viability (NCI-H1648; first compound 0.1581 µM) of 0.667. It also gave a relative viability (NCI-H1648; first compound 0.5 µM) of 0.604, a relative viability (NCI-H1703; first compound 0.005 µM) of 0.128 and a relative viability (NCI-H1703; first compound 0.01581 µM) of 0.161. It also gave a relative viability (NCI-H1703; first compound 0.05 µM) of 0.149, a relative viability (NCI-H1703; first compound 0.5 µM) of 0.122 and a relative viability (NCI-H1993; first compound 0.005 µM) of 0.738. It also gave a relative viability (NCI-H1993; first compound 0.01581 µM) of 1.05, a relative viability (NCI-H1993; first compound 0.05 µM) of 0.552 and a relative viability (NCI-H1993; first compound 0.1581 µM) of 0.721. For the same molecule, the relative viability (NCI-H1993; first compound 0.5 µM) was 0.641, the relative viability (NCI-H23; first compound 0.005 µM) was 0.28 and the relative viability (NCI-H23; first compound 0.01581 µM) was 0.33. It also gave a relative viability (NCI-H23; first compound 0.05 µM) of 0.291, a relative viability (NCI-H23; first compound 0.1581 µM) of 0.195 and a relative viability (NCI-H23; first compound 0.5 µM) of 0.23. The relative viability (NCI-H522; first compound 0.005 µM) was 0.748, the relative viability (NCI-H522; first compound 0.01581 µM) was 0.987 and the relative viability (NCI-H522; first compound 0.05 µM) was 1.12. For the same molecule, the relative viability (NCI-H522; first compound 0.1581 µM) was 0.832, the relative viability (NCI-H522; first compound 0.5 µM) was 0.9 and the relative viability (NCI-H596; first compound 0.005 µM) was 1.32. The relative viability (NCI-H596; first compound 0.01581 µM) was 1.26, the relative viability (NCI-H596; first compound 0.05 µM) was 0.919 and the relative viability (NCI-H596; first compound 0.1581 µM) was 1.05. It also gave a relative viability (NCI-H596; first compound 0.5 µM) of 1.05.
